Source: ChEMBL document CHEMBL1134022, “2-Acylimino-3H-thiazoline derivatives: a novel template for platelet GPIIb/IIIa receptor antagonists” (Bioorg Med Chem Lett, 2001)

Target: T1, Integrin alpha-IIb/beta-3 (Homo sapiens, UniProt P05106+P08514)
Test: Affinity for purified activated GPIIb/IIIa fibrinogen receptor in ELISA
Type: protein-complex assay

T1 sequence (P05106 27-788 limits assumed): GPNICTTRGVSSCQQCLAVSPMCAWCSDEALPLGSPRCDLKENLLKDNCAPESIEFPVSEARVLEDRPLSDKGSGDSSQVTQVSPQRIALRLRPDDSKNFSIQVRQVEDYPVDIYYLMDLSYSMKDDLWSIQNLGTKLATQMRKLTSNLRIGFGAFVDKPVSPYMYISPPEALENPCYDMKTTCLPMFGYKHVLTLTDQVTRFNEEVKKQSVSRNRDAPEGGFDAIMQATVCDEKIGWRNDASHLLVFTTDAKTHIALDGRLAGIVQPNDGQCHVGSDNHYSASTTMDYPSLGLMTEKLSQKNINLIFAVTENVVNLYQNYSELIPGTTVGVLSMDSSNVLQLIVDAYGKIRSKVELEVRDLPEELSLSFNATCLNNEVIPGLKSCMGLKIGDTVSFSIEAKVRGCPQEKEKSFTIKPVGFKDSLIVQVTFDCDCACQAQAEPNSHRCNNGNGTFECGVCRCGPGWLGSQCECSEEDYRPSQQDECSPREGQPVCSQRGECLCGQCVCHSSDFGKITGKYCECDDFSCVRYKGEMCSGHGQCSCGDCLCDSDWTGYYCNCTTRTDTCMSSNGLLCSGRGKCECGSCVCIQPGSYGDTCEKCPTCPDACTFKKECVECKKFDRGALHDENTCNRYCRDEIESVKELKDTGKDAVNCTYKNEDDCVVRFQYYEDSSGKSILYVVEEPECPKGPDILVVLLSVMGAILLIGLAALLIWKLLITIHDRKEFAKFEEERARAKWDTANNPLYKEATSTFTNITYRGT
T1 sequence (P08514 32-887 limits assumed): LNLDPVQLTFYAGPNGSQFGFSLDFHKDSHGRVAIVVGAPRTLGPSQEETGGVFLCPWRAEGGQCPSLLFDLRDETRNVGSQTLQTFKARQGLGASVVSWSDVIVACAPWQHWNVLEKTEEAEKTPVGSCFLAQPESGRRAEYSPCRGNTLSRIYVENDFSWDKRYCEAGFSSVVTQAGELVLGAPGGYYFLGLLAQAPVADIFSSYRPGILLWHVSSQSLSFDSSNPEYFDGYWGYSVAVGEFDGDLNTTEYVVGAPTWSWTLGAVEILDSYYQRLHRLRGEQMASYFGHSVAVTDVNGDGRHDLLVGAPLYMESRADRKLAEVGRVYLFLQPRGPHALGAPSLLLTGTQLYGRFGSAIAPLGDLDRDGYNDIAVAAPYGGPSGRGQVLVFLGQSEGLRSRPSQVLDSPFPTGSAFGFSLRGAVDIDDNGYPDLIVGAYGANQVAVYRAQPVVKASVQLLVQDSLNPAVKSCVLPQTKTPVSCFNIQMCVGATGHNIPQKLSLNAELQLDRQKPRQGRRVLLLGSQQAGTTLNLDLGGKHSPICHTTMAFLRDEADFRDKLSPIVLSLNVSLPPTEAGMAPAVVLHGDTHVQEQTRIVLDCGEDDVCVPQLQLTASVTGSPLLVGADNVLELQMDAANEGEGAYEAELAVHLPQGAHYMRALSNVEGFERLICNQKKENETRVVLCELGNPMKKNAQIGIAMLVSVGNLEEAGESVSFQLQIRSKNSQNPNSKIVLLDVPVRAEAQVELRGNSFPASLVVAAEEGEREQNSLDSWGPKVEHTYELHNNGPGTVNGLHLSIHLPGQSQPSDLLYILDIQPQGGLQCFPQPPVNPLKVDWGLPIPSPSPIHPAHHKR
T1 sequence (P08514 891-1039 limits assumed): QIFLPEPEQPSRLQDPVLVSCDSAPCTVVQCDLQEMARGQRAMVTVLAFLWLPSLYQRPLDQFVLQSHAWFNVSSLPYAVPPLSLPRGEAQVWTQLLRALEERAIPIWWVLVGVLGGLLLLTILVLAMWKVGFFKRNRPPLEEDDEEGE

Row | SMILES | IC50 [nM]
1 | CCCCn1c(C)c(C(=O)NCCC(=O)O)s/c1=N\C(=O)c1ccc(C(=N)N)cc1 | 0.13
2 | Cc1nc(NC(=O)c2ccc(C(=N)N)cc2)sc1CCC(=O)O | 0.57
3 | N=C(N)c1ccc(C(=O)Nc2cccc(CCC(=O)O)c2)cc1 | 0.55
4 | Cc1c(C(=O)N(C)CCC(=O)O)s/c(=N\C(=O)c2ccc(C(=N)N)cc2)n1C | 0.89
5 | Cc1nc(N(C)C(=O)c2ccc(C(=N)N)cc2)sc1CCC(=O)O | 1
6 | Cn1c2c(s/c1=N\C(=O)c1ccc(C(=N)N)cc1)C(=O)N(CCC(=O)O)C2 | 4.76
7 | CCn1c(C)c(C(=O)NCCC(=O)O)s/c1=N\C(=O)c1ccc(C(=N)N)cc1 | 0.12
8 | Cc1c(C(=O)NCCC(=O)O)s/c(=N\C(=O)c2ccc(C(=N)N)cc2)n1Cc1ccccc1 | 0.09

Target: T1, Integrin alpha-IIb/beta-3
Test: Binding to [125I]- fibrinogen by washed platelet fibrinogen receptor

Row | SMILES | IC50 [nM]
9 | CCCCn1c(C)c(C(=O)NCCC(=O)O)s/c1=N\C(=O)c1ccc(C(=N)N)cc1 | 6.26
10 | Cc1nc(NC(=O)c2ccc(C(=N)N)cc2)sc1CCC(=O)O | 60.5
11 | N=C(N)c1ccc(C(=O)Nc2cccc(CCC(=O)O)c2)cc1 | 105
12 | Cc1c(C(=O)N(C)CCC(=O)O)s/c(=N\C(=O)c2ccc(C(=N)N)cc2)n1C | 51.8
13 | Cn1c2c(s/c1=N\C(=O)c1ccc(C(=N)N)cc1)C(=O)N(CCC(=O)O)C2 | 67.9
